{"source": "patent US20110306554A1", "about": "“PEPTIDE CAPABLE OF BINDING TO IMMUNOGLOBULIN” (priority 2009, published 2011)", "key": {"[1]": {"tested_on": "Monoclonal antibody cocktail-induced arthritis mice", "test": "Arthritis suppressing effects on arthritis-induced mice, Part 1", "assay_type": "in vivo", "experimental": "Monoclonal antibody cocktail-induced arthritis mice (BALE/c Cr Slc (SPF)) were used to examine arthritis suppressing effects of a peptide which is indicated as R5 in Example 2. Arthritis was caused by intravenous administration of 2 mg/mouse of an arthritis-inducing monoclonal antibody cocktail and three days later, intraperitoneal administration of 50 μg/mouse of Lipopolysaccharide (LPS). Peptide R5 was intraperitoneally administered at a dose of 10 mg/kg once or twice a day from the day following the LPS administration (day 4) up to day 14. Methotrexate, a positive control drug, was orally administered at a dose of 0.1 mg/kg once a day from day 4. Clinical scores of the extremities were measured on even days from day 0 up to day 14. Under anesthesia, blood was removed with heparin-containing physiological saline, and an ice-cooled, 4% solution of paraformaldehyde was continuously injected to perfusion-fix the whole body. After perfusion-fixation, the knee joints (obtained by cutting at the center of the femur and of the tibia and removing the skin and muscles) and hock joints (from the center of the tibia to the toe tips) of both hind limbs were excised and further fixed by immersion in a 4% solution of paraformaldehyde overnight (4° C.). After that, both knee joints and both hock joints were transferred into 50 mM PBS (4° C.), and then subjected to soft x-ray radiography of the hock joints in two directions (from the internal side and the upper side).\nThe required amount was calculated for the peptide, based on the animal weight. A peptide solution was prepared to make a concentration of 1 mg/ml in a 0.5% methyl cellulose solution, and the prepared peptide solution was cold stored.\nA solution of methotrexate was prepared by weighing 1 mg of methotrexate into an agate mortar, grinding it with a pestle, and then gradually adding a 0.5% methyl cellulose solution to form a suspension and make a concentration of 0.01 mg/ml. […]\n(§1) Results of examinations were expressed by mean value±standard error and analyzed using EXSAS (Version 7.1.6, Arm Systex Co., Ltd.). […]"}, "[2]": {"tested_on": "Monoclonal antibody cocktail-induced arthritis mice", "test": "Arthritis suppressing effects on arthritis-induced mice, Part 2", "assay_type": "in vivo", "settings": "10 mg/kg intraperitoneal twice a day, 14 consecutive days from day 0", "experimental": "Monoclonal antibody cocktail-induced arthritis mice were used to examine arthritis suppressing effects of peptides which are indicated as R1, R2, and R5 in Example 2. Arthritis was caused by intravenous administration of 2 mg/mouse of an arthritis-inducing monoclonal antibody cocktail and three days later, intraperitoneal administration of 50 μg/mouse of LPS. The peptides were administered at a dose of 10 mg/kg twice a day for a period of 14 consecutive days from the day of administration of the arthritis-inducing monoclonal antibody cocktail (day 0), and arthritis suppressing effect was examined in terms of clinical score. Experiments were carried out in a similar way to those in the section (1) in Example 3.\nThe required amount was calculated for each peptide, based on the animal weight. Each peptide solution was prepared to make a concentration of 1 mg/ml in a 0.5% methyl cellulose solution, and the prepared peptide solution was cold stored.\nMeasurement of body weight of animals was made on days 0, 3, 6, 9, 12, and 14 during the study period, with day 0 being the day of administration of the arthritis-inducing monoclonal antibody cocktail. Observation of general condition was made on a daily basis.\nMice were weighed on the day prior to start of administration and randomly assigned to groups using a grouping software, so that the average body weight values of the groups were approximately equal. To twenty 7-week-old mice, the arthritis-inducing monoclonal antibody cocktail was intravenously administered at a dose of 2 mg/mouse on day 0, and LPS was intraperitoneally administered at a dose of 50 μg/mouse on day 3.\nEach peptide solution was given via intraperitoneal administration twice a day, morning and afternoon, from day 0. As a control, a 0.5% solution of methyl cellulose was intraperitoneally administered twice a day from day 0. A needle (26G; Terumo) and a syringe (1.0-ml capacity; Terumo) were used for administration. […]\nas §1"}}, "note": "Entries after “also recorded” stand apart in the source; their conditions may differ.", "data": [{"sequence": "STGKFTCKVPGLYYF (Immunoglobulin binding peptide) [R5]", "values": [{"measurement": "difference in effectiveness between once-a-day and twice-a-day administration", "setting": "[1]; 10 mg/kg intraperitoneal", "result": "no significant difference"}, {"measurement": "degree of arthritis suppression compared with methotrexate", "setting": "[1]; 10 mg/kg intraperitoneal vs methotrexate 0.1 mg/kg orally once a day", "result": "higher degree of arthritis suppression than that of methotrexate"}, {"measurement": "arthritis suppressing effect (clinical score)", "setting": "[1]; 10 mg/kg intraperitoneal, once or twice a day, day 4 to day 14", "result": "exhibited arthritis suppressing effects; also recorded: arthritis was suppressed"}, {"measurement": "arthritis suppressing effect (clinical score)", "setting": "[2]", "result": "Arthritis suppressing effects were observed; also recorded: arthritis was suppressed"}]}]}
